Here are results for 22 molecules from ChEMBL document CHEMBL1145932, “Design and synthesis of novel bioactive peptides and peptidomimetics” (J Med Chem, 2003).

Broadly, the half-life is the time in which the quantity being followed falls by half. Low readings indicate rapid decline, high ones slow decline. The term EC50 denotes the midpoint of the concentration-response curve. Low readings indicate greater potency, high ones weaker potency.

Data set [1] in a line: Half life period was determined. It counts as ADME.
Data set [2] has as its system Mus musculus. Description: In vivo percentage reduction of prostate specific antigen (PSA) was determined at a dose of 0.26 umol/kg of the compound. The format is functional, Prostate gland.
The subject of the next data set is T47D. Description: In vitro effective concentration against T47D cell line. The format is functional, cell-based. The following applies: Homo sapiens.
The subject of a further data set is COLO 320. Nature of the data set: In vitro effective concentration against COLO 320 cell line. The conditions noted are these: Homo sapiens. The format is functional, cell-based.
Data set [3] relates to Mus musculus. Description: In vivo maximum tolerated dose in nude mice was determined. The format is functional.
The subject of the next data set is LNCaP. Description: In vitro effective concentration against LNCaP prostate cancer cell line. It counts as functional, cell-based. The conditions noted are these: Homo sapiens.
Data set [4] concerns Mus musculus. Description: In vivo maximum tolerated dose was determined. It counts as functional.
Data set [5] is filed under the species Rattus norvegicus. Nature of the data set: In vitro relative potency for the inhibition of growth hormone release. The format is functional.
For data set [6], the species on record is Rattus norvegicus. Description: Relative potency for the inhibition of insulin hormone release. It counts as functional.
For data set [7], the species on record is Rattus norvegicus. Description: Relative potency for the inhibition of glucagon hormone release. The format is functional.
For a further data set, the system named is DuPro. Description: In vitro effective concentration against DuPRO cancer cell line. The format is functional, cell-based. The conditions noted are these: Homo sapiens.
For data set [8], the species on record is Rattus norvegicus. Nature of the data set: Relative potency for the inhibition of growth hormone release. The format is functional.
The species named for data set [9] is Rattus norvegicus. Description: Relative potency for the inhibition of glucagon hormone release; Active. The format is functional, organism-based.
Data set [10] has as its system Mus musculus. Nature of the data set: In vivo percentage weight reduction of tumor was determined at a dose of 0.26 umol/kg of the compound. It counts as functional.

Calls of active or inactive are those of the source. No cut-off for these calls is given here. Numbered stars: 1 amine (or outer) side, 2 acyl side, 3 side chain; on linkers, the order of the positions; unused ones are H or OH. Square brackets hold non-standard residues; d marks the D form. Peptide text beside a SMILES is read from it. * marks the point of attachment. ξ: configuration not given here. Doxorubicin(3'-N) = COc1cccc2c1C(=O)c1c(O)c3c(c(O)c1C2=O)C[C@@](O)(C(=O)CO)C[C@@H]3O[C@H]1C[C@H](N*)[C@H](O)[C@H](C)O1; X2 = COc1cccc2c1C(=O)c1c(O)c3c(c(O)c1C2=O)C[C@@](O)(C(=O)CO)C[C@@H]3O[C@H]1C[C@@H](N*)[C@H](O)[C@H](C)O1; X1 = COc1cccc2c1C(=O)c1c(O)c3c(c(O)c1C2=O)C[C@@](O)(C(=O)CO)C[C@@H]3OC1CC(N*)C(O)C(C)O1; ξPro(4R-OH) = O=C(O)C1C[C@@H](O)CN1; Glutaryl = O=C(CCCC(=O)[*:2])[*:1]; Hyp = O=C(O)[C@@H]1C[C@@H](O)CN1; Chg = N[C@H](C(=O)O)C1CCCCC1; Suc = O=C(CCC(=O)[*:2])[*:1]

The molecule `CC[C@]1(O)CC[C@@H]2CN1CCC1c3ccccc3NC1[C@@H](c1cc3c(cc1OC)N(C)C1C34CCN3CC=C[C@](CC)(C34)[C@@H](OC(=O)[C@@H]3CCCN3C(=O)[C@H](CO)NC(=O)[C@H](CO)NC(=O)[C@H](CCC(N)=O)NC(=O)[C@@H](NC(=O)[C@H](CO)NC(=O)[C@H](CO)NC(=O)[C@@H]3CC(O)CN3C(C)=O)C3CCCCC3)[C@]1(O)C(=O)OC)[C@H]2C(=O)OC` (stereo partly specified) returned a half-life in data set [1] of 12 min. This molecule had a PSA with Mus musculus [2] of 99%. The EC50 is over 50 µM with T47D, 14 µM with COLO 320 and 1.6 µM in the data set on LNCaP. The Tumor weight reduction in the data set on Mus musculus [3] is 85%. The MTD in the data set on Mus musculus [4] amounted to 21.4 µM/kg.

`C[C@H](N)C(=O)NCC(=O)N[C@H]1CSSC[C@@H](C(=O)O)NC(=O)[C@H](CO)NC(=O)[C@H]([C@@H](C)O)NC(=O)[C@H](Cc2ccccc2)NC(=O)[C@H]([C@@H](C)O)NC(=O)[C@H](CCCCN)NC(=O)[C@H](Cc2c[nH]c3ccccc23)NC(=O)[C@H](Cc2ccccc2)NC(=O)[C@H](Cc2ccccc2)NC(=O)[C@H](CC(N)=O)NC(=O)[C@H](CCCCN)NC1=O` [SOMATOSTATIN] came in with a Relative potency in the data set filed under Rattus norvegicus [5] of 1.

For the molecule `C[C@@H](O)[C@@H]1NC(=O)[C@H](CCCCN)NC(=O)[C@@H](Cc2c[nH]c3ccccc23)NC(=O)[C@H](Cc2ccccc2)NC(=O)CN2CC[C@H](NC1=O)C2=O`, the values for the Relative potency in the data set listed under Rattus norvegicus [6], in the data set filed under Rattus norvegicus [5] and in the data set filed under Rattus norvegicus [7] were under 0.07, 0.004 and under 0.07, respectively.

On to `COc1cccc2c1C(=O)c1c(O)c3c(c(O)c1C2=O)C[C@@](O)(C(=O)CO)C[C@@H]3OC1CC(NC(=O)[C@H](CC(C)C)NC(=O)[C@H](CO)NC(=O)[C@H](CCC(N)=O)NC(=O)[C@@H](NC(=O)[C@H](CO)NC(=O)[C@H](C)NC(=O)C2C[C@@H](O)CN2C(C)=O)C2CCCCC2)C(O)C(C)O1` (stereo partly drawn) (Ac-[ξPro(4R-OH)]AS[Chg]QSL-X1), for which the EC50 in the data set with DuPro worked out at 100 µM; with LNCaP, 4.5 µM. The same molecule showed a half-life in data set [1] of 20 min.

In the case of `C[C@H](O)[C@H]1NC(=O)[C@@H](Cc2ccccc2)N(C)C(=O)[C@@H](C)NC(=O)[C@@H](Cc2ccccc2)NC(=O)[C@@H](Cc2c[nH]c3ccccc23)CNC(=O)[C@H](CCCCN)NC1=O`, the Relative potency in the data set listed under Rattus norvegicus [5] is reported as 0.88.

On to `C[C@@H](O)[C@@H]1NC(=O)[C@H](CCCCN)NC(=O)[C@H](Cc2c[nH]c3ccccc23)NC(=O)[C@H](Cc2ccccc2)NC(=O)CN2CCC[C@H](NC1=O)C2=O`, for which the Relative potency was under 0.07 in the data set listed under Rattus norvegicus [6], under 0.005 in the data set listed under Rattus norvegicus [5] and under 0.07 in the data set listed under Rattus norvegicus [7].

In the data set filed under Rattus norvegicus [5], `C[C@H](O)[C@H]1NC(=O)[C@@H](Cc2ccccc2)N(C)C(=O)[C@@H](C)NC(=O)[C@@H](Cc2ccccc2)NC(=O)[C@H](Cc2c[nH]c3ccccc23)CNC(=O)[C@@H](CCCCN)NC1=O` showed a Relative potency of 0.27.

On to `C[C@@H](O)[C@@H]1NC(=O)[C@H](CCCCN)NC(=O)[C@H](Cc2c[nH]c3ccccc23)NC(=O)[C@H](Cc2ccccc2)NC(=O)CN2CCC[C@@H](NC1=O)C2=O`, for which the Relative potency in the data set listed under Rattus norvegicus [6] is under 0.07; in the data set filed under Rattus norvegicus [5], under 0.005; in the data set filed under Rattus norvegicus [7] it was under 0.07.

`C[C@@H](O)[C@@H]1NC(=O)[C@H](CCCCN)NC(=O)[C@@H](Cc2c[nH]c3ccccc23)NC(=O)[C@H](Cc2ccccc2)NC(=O)[C@H](C)N(C)C(=O)[C@H](Cc2ccccc2)NC1=O`: the Relative potency in the data set listed under Rattus norvegicus [6] is given as 6; in the data set filed under Rattus norvegicus [5], 3.5; in the data set listed under Rattus norvegicus [7] it was 16.7.

Turning to `COc1cccc2c1C(=O)c1c(O)c3c(c(O)c1C2=O)C[C@@](O)(C(=O)CO)C[C@@H]3O[C@H]1C[C@@H](NC(=O)[C@H](CC(C)C)NC(=O)[C@H](CO)NC(=O)[C@H](CCC(N)=O)NC(=O)[C@@H](NC(=O)[C@H](CO)NC(=O)[C@H](C)NC(=O)[C@@H]2C[C@@H](O)CN2C(=O)CCCC(=O)O)C2CCCCC2)[C@H](O)[C@H](C)O1` (Glutaryl-[Hyp]AS[Chg]QSL-X2), the EC50 in the data set on DuPro was over 100 µM; with LNCaP, 5 µM. The molecule further came in with a half-life in data set [1] of 30 min.

Molecule `C[C@@H](O)[C@@H]1NC(=O)[C@H](CCCCN)NC(=O)[C@@H](Cc2c[nH]c3ccccc23)NC(=O)[C@H](Cc2ccccc2)NC(=O)[C@@H]2CSSC[C@H](NC1=O)C(=O)NCCCCCCC(=O)N2` yielded a Relative potency in the data set filed under Rattus norvegicus [8] of 1.24.

`C[C@@H](O)[C@@H]1NC(=O)[C@H](CCCCN)NC(=O)[C@@H](Cc2c[nH]c3ccccc23)NC(=O)[C@H](Cc2ccccc2)NC(=O)CN2CC[C@@H](NC1=O)C2=O`: the Relative potency in the data set listed under Rattus norvegicus [6] is under 0.2; in the data set listed under Rattus norvegicus [5], 0.001; in the data set listed under Rattus norvegicus [7] it was under 0.2.

As to `C[C@@H](O)[C@@H]1NC(=O)[C@H](CCCCN)NC(=O)[C@@H](Cc2c[nH]c3ccccc23)NC(=O)[C@H](Cc2ccccc2)NC(=O)[C@@H]2CCCN2C(=O)[C@H](Cc2ccccc2)N(C)C1=O`, the Relative potency was 1.1 in the data set filed under Rattus norvegicus [6], 0.53 in the data set listed under Rattus norvegicus [5] and 2 in the data set filed under Rattus norvegicus [7].

On to `COc1cccc2c1C(=O)c1c(O)c3c(c(O)c1C2=O)C[C@@](O)(C(=O)CO)C[C@@H]3OC1CC(NC(=O)[C@H](CC(C)C)NC(=O)[C@H](CO)NC(=O)[C@H](CCC(N)=O)NC(=O)[C@@H](NC(=O)[C@H](CO)NC(=O)[C@H](C)NC(=O)C2C[C@@H](O)CN2C(=O)CCC(=O)O)C2CCCCC2)C(O)C(C)O1` (stereo partly drawn) (Suc-[ξPro(4R-OH)]AS[Chg]QSL-X1), for which the EC50 with DuPro worked out at 100 µM; in the data set with LNCaP, 5.7 µM. The molecule also displayed a half-life in [1] of 55 min.

In the case of `C[C@@H](O)[C@@H]1NC(=O)[C@H](CCCCN)N(C)C(=O)[C@@H](Cc2c[nH]c3ccccc23)NC(=O)[C@H](Cc2ccccc2)NC(=O)[C@@H]2CCCN2C(=O)[C@H](Cc2ccccc2)NC1=O`, the Relative potency result in the data set filed under Rattus norvegicus [9] was “Active”. The Relative potency is 0.5 in the data set listed under Rattus norvegicus [6] and 1.6 in the data set filed under Rattus norvegicus [5].

Regarding `CC[C@]1(O)CC[C@@H]2CN1CCC1c3ccccc3NC1[C@@H](c1cc3c(cc1OC)N(C)C1C34CCN3CC=C[C@](CC)(C34)[C@@H](O)[C@]1(O)C(=O)OC)[C@H]2C(=O)OC` (stereo partly specified), in the data set with Mus musculus [2], the PSA stood at 14%. This molecule displayed a Tumor weight reduction in the data set with Mus musculus [10] of 16%. Moreover, the EC50 in the data set with T47D is 0.15 µM; in the data set with COLO 320, 0.2 µM; with LNCaP it was 0.1 µM. This molecule also returned an MTD with Mus musculus [3] of 0.26 µM/kg.

`COc1cccc2c1C(=O)c1c(O)c3c(c(O)c1C2=O)C[C@@](O)(C(=O)CO)C[C@@H]3OC1CC(NC(=O)[C@H](CC(C)C)NC(=O)[C@H](CO)NC(=O)[C@H](CCC(N)=O)NC(=O)[C@H](Cc2ccc(O)cc2)NC(=O)[C@H](CO)NC(=O)[C@H](C)NC(=O)[C@H](CCCCN)NC(C)=O)C(O)C(C)O1` (stereo partly specified) (Ac-KASYQSL-X1) gave a half-life in data set [1] of 30 min.

`COc1cccc2c1C(=O)c1c(O)c3c(c(O)c1C2=O)C[C@@](O)(C(=O)CO)C[C@@H]3OC1CC(NC(=O)C(N)CC(C)C)C(O)C(C)O1` (stereo partly specified): the concentration for a half-maximal effect (EC50) in the data set with DuPro was determined as 14 µM; in the data set with LNCaP, 6.7 µM.

In the case of `COc1cccc2c1C(=O)c1c(O)c3c(c(O)c1C2=O)C[C@@](O)(C(=O)CO)C[C@@H]3OC1CC(NC(=O)[C@H](CC(C)C)NC(=O)[C@H](CO)NC(=O)[C@H](CCC(N)=O)NC(=O)[C@@H](NC(=O)[C@H](CO)NC(=O)[C@H](C)NC(=O)[C@H](CCCCN)NC(C)=O)C2CCCCC2)C(O)C(C)O1` (stereo partly specified) (Ac-KAS[Chg]QSL-X1), the EC50 with DuPro was over 100 µM. Further, the half-life in data set [1] was 10 min.

Consider `COc1cccc2c1C(=O)c1c(O)c3c(c(O)c1C2=O)C[C@@](O)(C(=O)CO)C[C@@H]3O[C@H]1C[C@H](NC(=O)[C@H](CC(C)C)NC(=O)[C@H](CO)NC(=O)[C@H](CO)NC(=O)[C@H](CCC(N)=O)NC(=O)[C@H](Cc2ccc(O)cc2)NC(=O)[C@H](CO)NC(=O)[C@H](C)NC(=O)[C@H](CCCCN)NC(=O)[C@H](CC(N)=O)NC(=O)[C@H](C)NC(C)=O)[C@H](O)[C@H](C)O1` (Ac-ANKASYQSSL-{Doxorubicin(3'-N)}), for which, in the data set on DuPro, the EC50 was over 100 µM. In data set [1], this molecule had a half-life of 100 min.

On to `C[C@H](O)[C@H]1NC(=O)[C@@H](Cc2ccccc2)NC(=O)[C@@H](C)N(C)C(=O)[C@@H](Cc2ccccc2)NC(=O)[C@H](Cc2c[nH]c3ccccc23)CNC(=O)[C@@H](CCCCN)NC1=O`, for which, in the data set filed under Rattus norvegicus [5], the Relative potency stood at 0.003.

As to `CC[C@]1(O)CC[C@@H]2CN1CCC1c3ccccc3NC1[C@@H](c1cc3c(cc1OC)N(C)C1C34CCN3CC=C[C@](CC)(C34)[C@@H](OC(C)=O)[C@]1(O)C(=O)OC)[C@H]2C(=O)OC` (stereo partly specified), the EC50 in the data set on LNCaP was determined as 0.5 µM.
